Consider 1 compound from ChEMBL document CHEMBL1949518, “Synthesis and biological evaluation of some new 2-pyrazolines bearing benzene sulfonamide moiety as potential anti-inflammatory and anti-cancer agents” (Eur J Med Chem, 2011).

One experiment concerns UO-31. In words: Antiproliferative activity against human UO31 cells assessed as cell growth at 10^-5 M after 48 hrs by SRB assay relative to control. The format is functional. Conditions: UO-31, 48 h, read-out: Activity.
Another experiment relates to SK-MEL-2. Briefly: Antiproliferative activity against human SK-MEL-2 cells assessed as cell growth at 10^-5 M after 48 hrs by SRB assay relative to control. Conditions: SK-MEL-2, 48 h, read-out: Activity. The format is functional.

On to `COc1ccc(C2CC(c3c(O)cc(C)c(Cl)c3C)=NN2c2ccc(S(N)(=O)=O)cc2)cc1` (configuration not stated), for which the results for the growth at 10 µM in the experiment on UO-31 and with SK-MEL-2 were 93.3% and 94.3%, respectively.
